Results reported in ChEMBL document CHEMBL6177939, “The role of silicon in drug discovery: a review” (RSC Med Chem, 2024).
≈ marks a conversion by molar mass, not a printed value. Each block holds one molecule with its values, some of them ahead of it.

Columns and labels:
NCI-H460 = assay: Antiproliferative activity against human NCI-H460 cells assessed as reduction in cell growth incubated for 24 hrs; type: functional, cell-based; details: NCI-H460, 24 h
Caco-2 = assay: Antiproliferative activity against human Caco-2 cells assessed as reduction in cell growth incubated for 24 hrs; type: functional, cell-based; details: Caco-2, 24 h
MCF7 = assay: Antiproliferative activity against human MCF7 cells assessed as reduction in cell growth incubated for 24 hrs; type: functional, cell-based; details: MCF7, 24 h
HT-29 [1] = assay: Antiproliferative activity against human HT-29 cells assessed as reduction in cell growth incubated for 24 hrs; type: functional, cell-based; details: HT-29, 24 h
Histone deacetylase 2 = Histone deacetylase 2 (Homo sapiens, UniProt Q92769)
Histone deacetylase 4 = Histone deacetylase 4 (Homo sapiens, UniProt P56524); assay: Inhibition of human recombinant HDAC4 using Ac-Leu-Gly-Lys(Tfa)-AMC as substrate incubated for 30 mins by EnSpire plate reader analysis
Histone deacetylase 5 = Histone deacetylase 5 (Homo sapiens, UniProt Q9UQL6); assay: Inhibition of human recombinant HDAC5 using Ac-Leu-Gly-Lys(Tfa)-AMC as substrate incubated for 30 mins by EnSpire plate reader analysis
[2] = target: Protein deacetylase HDAC6 (Homo sapiens, UniProt Q9UBN7); assay: Inhibition of human recombinant HDAC6 using Ac-Leu-Gly-Lys(Ac)-AMC as substrate incubated for 30 mins by EnSpire plate reader analysis
Histone deacetylase 1 = Histone deacetylase 1 (Homo sapiens, UniProt Q13547); assay: Inhibition of human recombinant HDAC1 using Ac-Leu-Gly-Lys(Ac)-AMC as substrate incubated for 30 mins by EnSpire plate reader analysis
Interstitial collagenase = Interstitial collagenase (Homo sapiens, UniProt P03956); assay: Inhibition of MMP-1 (unknown origin)
HT-1080 [3] = assay: Cytotoxicity against human HT-1080 cells assessed as reduction in cell growth by MTT assay; type: functional, cell-based
MG-22A [4] = assay: Cytotoxicity against mouse MG-22A cells assessed as reduction in cell growth by MTT assay; type: functional, cell-based
Plutella xylostella = assay: Toxicity in Plutella xylostella assessed as lethal dose; type: organism-based
Mythimna separata = assay: Toxicity in Mythimna separata assessed as lethal dose; type: organism-based
Enterococcus durans [5] = assay: Antibacterial activity against Enterococcus durans B-603 (all Russian collections of micro-organism) assessed as reduction in bacterial growth incubated for 24 hrs by broth micro-dilution method; type: functional
Bacillus subtilis [6] = assay: Antibacterial activity against Bacillus subtilis B-407 (all Russian collections of micro-organism) assessed as reduction in bacterial growth incubated for 24 hrs by broth micro-dilution method; type: functional
Acetylcholinesterase = Acetylcholinesterase (Homo sapiens, UniProt P22303); assay: Inhibition of AChE (unknown origin) using acetylthiocholine iodide as substrate by Ellman's method
HCT-8 = assay: Cytotoxicity against human HCT-8 cells assessed as inhibition of cell growth at 5 ug/ml relative to control; type: functional
Bel-7402 = assay: Cytotoxicity against human Bel-7402 cells assessed as inhibition of cell growth at 5 ug/ml relative to control; type: functional
HepG2 = assay: Antiproliferative activity against human HepG2 cells; type: functional, cell-based
A549 = assay: Antiproliferative activity against human A549 cells; type: functional, cell-based
Escherichia coli [7] = assay: Antibacterial activity against Escherichia coli B-1238 (all Russian collections of micro-organism) assessed as reduction in bacterial growth by broth micro-dilution method; type: functional
HeLa [8] = assay: Antiproliferative activity against human Hela cells assessed as reduction in cell viability incubated for 24 hrs by MTT assay; type: functional, cell-based
MDA-MB-435 [9] = assay: Antiproliferative activity against human MDA-MB-435 cells assessed as reduction in cell viability incubated for 24 hrs by MTT assay; type: functional, cell-based; details: MDA-MB-435, 24 h
HT-29 [10] = assay: Antiproliferative activity against human HT-29 cells assessed as reduction in cell viability incubated for 24 hrs by MTT assay; type: functional, cell-based; details: HT-29, 24 h
HT-1080 [11] = assay: Cytotoxicity against human HT-1080 cells assessed as reduction in cell growth measured for 72 hrs by MTT assay; type: functional, cell-based; details: HT-1080, 72 h
MG-22A [12] = assay: Cytotoxicity against mouse MG-22A cells assessed as reduction in cell growth measured for 72 hrs by MTT assay; type: functional, cell-based
[13] = test system: Human immunodeficiency virus 1; assay: Antiviral activity against HIV-1 IIIB infected in human MT2 cells assessed as reduction in virus-induced cytopathic effect incubated for 4 days by spectrophotometric based MTT assay; type: functional, organism-based; details: Human immunodeficiency virus 1, IIIB, MT2, 96 h
[14] = target: Human immunodeficiency virus type 1 reverse transcriptase (Human immunodeficiency virus 1, UniProt Q72547); assay: Inhibition of recombinant HIV-1 reverse transcriptase
Bacillus subtilis [15] = assay: Antibacterial activity against Bacillus subtilis; type: functional
Escherichia coli [16] = assay: Antibacterial activity against Escherichia coli; type: functional
Staphylococcus aureus = assay: Antibacterial activity against methicillin-resistant Staphylococcus aureus assessed as reduction in bacterial cell growth by broth micro-dilution method; type: functional
Pseudomonas aeruginosa = assay: Antibacterial activity against Pseudomonas aeruginosa PAO1 assessed as reduction in bacterial growth by broth micro-dilution method; type: functional
[17] = test system: Staphylococcus epidermidis; assay: Antibacterial activity against methicillin-resistant Staphylococcus epidermidis 3382 assessed as reduction in bacterial cell growth by broth micro-dilution method; type: functional
Enterococcus durans [18] = assay: Antibacterial activity against Enterococcus durans B-603 (all Russian collections of micro-organism) assessed as reduction in bacterial growth by broth micro-dilution method; type: functional
Bacillus subtilis [19] = assay: Antibacterial activity against Bacillus subtilis B-407 (all Russian collections of micro-organism) assessed as reduction in bacterial growth by broth micro-dilution method; type: functional
[20] = test system: Human immunodeficiency virus 1; assay: Antiviral activity against HIV-1 infected in human MT4 cells; type: functional, organism-based; details: Human immunodeficiency virus 1, MT4
HeLa [21] = assay: Growth inhibition of human HeLa cells measured for 48 hrs by SRB assay; type: functional
WiDr = assay: Growth inhibition of human WiDr cells measured for 48 hrs by SRB assay; type: functional
T47D = assay: Growth inhibition of human T47D cells measured for 48 hrs by SRB assay; type: functional
MDA-MB-435 [22] = assay: Cytotoxicity against human MDA-MB-435 cells assessed as reduction in cell viability incubated for 48 hrs by SRB assay; type: functional, cell-based; details: MDA-MB-435, 48 h
MDA-MB-435 [23] = assay: Growth inhibition of human MDA-MB-435 cells measured for 48 hrs by SRB assay; type: functional
A2780 = assay: Antiproliferative activity against human A2780 cells assessed as reduction in cell growth incubated for 24 hrs by MTT assay; type: functional, cell-based; details: A2780, 24 h
COLO 320 = assay: Antiproliferative activity against human COLO 320 cells assessed as reduction in cell growth incubated for 24 hrs by MTT assay; type: functional, cell-based; details: COLO 320, 24 h
COLO 205 = assay: Antiproliferative activity against human COLO 205 cells assessed as reduction in cell growth incubated for 24 hrs by MTT assay; type: functional, cell-based; details: COLO 205, 24 h

Acetylcholinesterase, sequence (P22303 whole entry): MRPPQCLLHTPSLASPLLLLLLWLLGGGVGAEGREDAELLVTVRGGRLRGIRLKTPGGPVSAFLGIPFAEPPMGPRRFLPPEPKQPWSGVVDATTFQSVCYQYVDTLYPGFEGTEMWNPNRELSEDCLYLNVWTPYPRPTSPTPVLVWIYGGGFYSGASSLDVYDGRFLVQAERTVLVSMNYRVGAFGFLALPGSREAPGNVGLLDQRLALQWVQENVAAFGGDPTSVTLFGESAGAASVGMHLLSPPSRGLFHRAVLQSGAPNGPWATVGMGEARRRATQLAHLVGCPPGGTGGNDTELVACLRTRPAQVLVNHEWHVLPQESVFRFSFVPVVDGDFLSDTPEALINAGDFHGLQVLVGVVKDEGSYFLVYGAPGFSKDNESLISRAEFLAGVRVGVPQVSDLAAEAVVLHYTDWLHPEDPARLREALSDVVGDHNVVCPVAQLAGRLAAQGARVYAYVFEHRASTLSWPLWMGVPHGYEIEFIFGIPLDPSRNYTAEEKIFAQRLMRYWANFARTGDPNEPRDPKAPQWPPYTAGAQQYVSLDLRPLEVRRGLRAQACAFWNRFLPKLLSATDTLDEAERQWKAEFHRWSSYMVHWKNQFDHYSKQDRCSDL
Histone deacetylase 5, sequence (Q9UQL6 whole entry): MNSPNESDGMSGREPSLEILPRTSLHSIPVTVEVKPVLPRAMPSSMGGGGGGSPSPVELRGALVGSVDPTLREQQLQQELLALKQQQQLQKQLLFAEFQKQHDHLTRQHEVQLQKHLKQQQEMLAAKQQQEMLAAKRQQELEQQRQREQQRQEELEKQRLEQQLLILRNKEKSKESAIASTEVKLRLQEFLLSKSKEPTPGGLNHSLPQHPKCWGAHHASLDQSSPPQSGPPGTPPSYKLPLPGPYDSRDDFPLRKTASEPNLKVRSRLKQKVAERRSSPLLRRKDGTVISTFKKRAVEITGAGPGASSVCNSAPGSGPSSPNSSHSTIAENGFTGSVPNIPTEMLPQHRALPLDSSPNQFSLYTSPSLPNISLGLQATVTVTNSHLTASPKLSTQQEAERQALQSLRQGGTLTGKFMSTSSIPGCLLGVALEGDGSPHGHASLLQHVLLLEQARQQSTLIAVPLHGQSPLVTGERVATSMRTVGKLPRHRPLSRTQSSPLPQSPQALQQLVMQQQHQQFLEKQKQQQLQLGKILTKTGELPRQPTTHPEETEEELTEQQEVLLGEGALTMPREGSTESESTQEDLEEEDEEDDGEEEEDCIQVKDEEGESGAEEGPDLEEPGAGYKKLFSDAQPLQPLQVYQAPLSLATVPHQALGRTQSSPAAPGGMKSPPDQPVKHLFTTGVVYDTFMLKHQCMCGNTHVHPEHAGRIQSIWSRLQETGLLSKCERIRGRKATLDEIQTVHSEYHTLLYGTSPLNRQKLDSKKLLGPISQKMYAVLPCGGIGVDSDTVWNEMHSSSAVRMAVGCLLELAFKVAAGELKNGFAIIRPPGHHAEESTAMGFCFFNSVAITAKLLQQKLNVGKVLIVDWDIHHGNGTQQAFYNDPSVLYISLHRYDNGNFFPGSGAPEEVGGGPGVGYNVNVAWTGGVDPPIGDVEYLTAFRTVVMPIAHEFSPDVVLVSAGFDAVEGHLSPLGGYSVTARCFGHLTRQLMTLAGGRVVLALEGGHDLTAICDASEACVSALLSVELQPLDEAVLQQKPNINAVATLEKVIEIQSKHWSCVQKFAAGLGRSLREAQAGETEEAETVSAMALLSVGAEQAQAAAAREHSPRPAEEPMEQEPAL
Protein deacetylase HDAC6, sequence (Q9UBN7 whole entry): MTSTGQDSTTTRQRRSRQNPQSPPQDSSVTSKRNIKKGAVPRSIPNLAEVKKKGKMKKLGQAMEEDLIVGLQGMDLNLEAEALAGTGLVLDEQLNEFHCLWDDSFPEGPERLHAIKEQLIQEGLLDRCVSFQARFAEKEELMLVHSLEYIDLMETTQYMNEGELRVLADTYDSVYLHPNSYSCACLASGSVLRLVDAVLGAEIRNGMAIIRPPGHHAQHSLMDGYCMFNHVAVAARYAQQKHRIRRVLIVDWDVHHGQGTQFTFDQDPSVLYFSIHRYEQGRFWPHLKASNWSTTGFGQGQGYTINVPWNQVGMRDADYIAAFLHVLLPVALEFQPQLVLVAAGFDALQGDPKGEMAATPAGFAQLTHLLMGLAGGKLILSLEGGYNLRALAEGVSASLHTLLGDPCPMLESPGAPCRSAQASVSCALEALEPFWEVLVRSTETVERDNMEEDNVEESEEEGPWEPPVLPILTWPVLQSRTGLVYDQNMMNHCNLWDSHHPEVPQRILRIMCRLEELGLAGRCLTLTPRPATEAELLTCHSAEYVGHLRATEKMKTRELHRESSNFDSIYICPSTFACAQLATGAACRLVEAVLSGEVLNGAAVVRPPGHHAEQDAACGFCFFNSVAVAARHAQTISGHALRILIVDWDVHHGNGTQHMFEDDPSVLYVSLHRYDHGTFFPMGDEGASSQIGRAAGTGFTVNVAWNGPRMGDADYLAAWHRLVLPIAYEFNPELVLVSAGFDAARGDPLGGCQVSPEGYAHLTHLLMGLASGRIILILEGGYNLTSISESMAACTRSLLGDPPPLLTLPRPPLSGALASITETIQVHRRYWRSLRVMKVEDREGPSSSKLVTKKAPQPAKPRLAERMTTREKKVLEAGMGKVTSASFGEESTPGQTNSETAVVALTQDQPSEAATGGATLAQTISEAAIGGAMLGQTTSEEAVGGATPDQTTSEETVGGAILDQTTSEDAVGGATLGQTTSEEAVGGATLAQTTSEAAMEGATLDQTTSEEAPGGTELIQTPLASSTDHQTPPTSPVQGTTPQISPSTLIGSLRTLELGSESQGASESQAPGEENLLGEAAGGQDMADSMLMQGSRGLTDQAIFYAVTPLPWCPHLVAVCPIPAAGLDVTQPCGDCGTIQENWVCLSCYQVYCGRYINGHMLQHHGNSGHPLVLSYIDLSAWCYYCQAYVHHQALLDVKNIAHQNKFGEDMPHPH
Interstitial collagenase, sequence (P03956 whole entry): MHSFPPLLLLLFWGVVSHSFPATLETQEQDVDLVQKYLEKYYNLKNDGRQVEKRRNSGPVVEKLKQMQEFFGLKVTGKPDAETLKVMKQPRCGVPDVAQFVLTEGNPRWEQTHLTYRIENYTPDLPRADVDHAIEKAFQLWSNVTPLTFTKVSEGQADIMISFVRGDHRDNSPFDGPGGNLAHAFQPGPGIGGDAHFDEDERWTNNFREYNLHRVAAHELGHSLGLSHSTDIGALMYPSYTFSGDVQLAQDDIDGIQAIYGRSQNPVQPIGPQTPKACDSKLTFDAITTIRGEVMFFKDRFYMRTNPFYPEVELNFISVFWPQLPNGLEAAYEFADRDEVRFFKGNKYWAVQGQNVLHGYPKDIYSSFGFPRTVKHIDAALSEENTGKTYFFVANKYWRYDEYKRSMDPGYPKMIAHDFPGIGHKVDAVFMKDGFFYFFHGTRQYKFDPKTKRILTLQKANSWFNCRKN
Histone deacetylase 4, sequence (P56524 whole entry): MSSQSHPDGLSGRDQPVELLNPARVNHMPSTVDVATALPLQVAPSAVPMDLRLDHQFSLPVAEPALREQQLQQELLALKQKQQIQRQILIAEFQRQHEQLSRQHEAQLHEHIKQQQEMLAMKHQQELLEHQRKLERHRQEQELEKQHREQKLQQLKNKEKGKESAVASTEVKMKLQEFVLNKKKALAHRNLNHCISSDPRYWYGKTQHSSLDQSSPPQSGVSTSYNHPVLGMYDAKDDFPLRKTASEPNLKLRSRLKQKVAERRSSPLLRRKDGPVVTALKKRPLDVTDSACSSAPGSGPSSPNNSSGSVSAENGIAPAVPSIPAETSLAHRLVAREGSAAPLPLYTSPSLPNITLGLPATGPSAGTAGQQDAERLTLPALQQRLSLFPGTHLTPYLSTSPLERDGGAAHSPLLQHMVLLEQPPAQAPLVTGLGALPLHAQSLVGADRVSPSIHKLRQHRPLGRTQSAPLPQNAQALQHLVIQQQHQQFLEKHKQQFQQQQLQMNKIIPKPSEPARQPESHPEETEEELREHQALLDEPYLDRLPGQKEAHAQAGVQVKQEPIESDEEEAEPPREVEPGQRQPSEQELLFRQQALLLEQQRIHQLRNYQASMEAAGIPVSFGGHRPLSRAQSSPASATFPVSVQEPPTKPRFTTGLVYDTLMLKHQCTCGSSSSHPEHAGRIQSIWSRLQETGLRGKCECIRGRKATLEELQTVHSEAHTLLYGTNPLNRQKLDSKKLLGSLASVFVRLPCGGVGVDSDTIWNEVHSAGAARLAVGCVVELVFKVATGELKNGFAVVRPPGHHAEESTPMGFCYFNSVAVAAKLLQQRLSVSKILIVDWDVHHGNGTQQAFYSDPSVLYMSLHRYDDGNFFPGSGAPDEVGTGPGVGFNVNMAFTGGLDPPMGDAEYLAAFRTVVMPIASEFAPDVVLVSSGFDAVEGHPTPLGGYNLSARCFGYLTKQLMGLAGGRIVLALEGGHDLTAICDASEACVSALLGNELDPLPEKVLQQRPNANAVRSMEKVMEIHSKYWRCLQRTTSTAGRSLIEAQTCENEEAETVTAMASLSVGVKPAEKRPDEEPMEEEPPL
Histone deacetylase 1, sequence (Q13547 whole entry): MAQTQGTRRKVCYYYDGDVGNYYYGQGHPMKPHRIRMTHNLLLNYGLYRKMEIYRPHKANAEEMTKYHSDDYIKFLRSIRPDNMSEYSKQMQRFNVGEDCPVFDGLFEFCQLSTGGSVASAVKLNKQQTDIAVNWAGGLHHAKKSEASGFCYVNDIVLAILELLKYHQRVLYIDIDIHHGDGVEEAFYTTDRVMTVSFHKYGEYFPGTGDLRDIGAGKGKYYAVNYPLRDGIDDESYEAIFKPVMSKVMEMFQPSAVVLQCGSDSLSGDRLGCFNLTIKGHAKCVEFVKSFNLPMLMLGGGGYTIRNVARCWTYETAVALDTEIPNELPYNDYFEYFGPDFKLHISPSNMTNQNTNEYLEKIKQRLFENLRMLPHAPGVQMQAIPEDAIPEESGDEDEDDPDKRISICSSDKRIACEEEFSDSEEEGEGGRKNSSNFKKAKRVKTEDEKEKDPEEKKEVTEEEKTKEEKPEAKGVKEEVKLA

SMILES: CCCC[Si](CC)(CCCC)OCC[N+](C)(C)C.[I-]
IC50 (HT-1080 [3]): 3 µg/mL
IC50 (MG-22A [4]): 1 µg/mL

SMILES: CCS(=O)(=O)c1cccnc1-c1nc2cc(S(=O)(=O)C(F)(F)F)ccc2o1
LC50 (Plutella xylostella): 0.21 µg/mL (≈ 0.5 µM)
LC50 (Mythimna separata): 4.68 µg/mL (≈ 11.1 µM)

SMILES: C[Si]1(Cl)C=CC(=O)C1=P(c1ccccc1)(c1ccccc1)c1ccccc1 (stereo not drawn)
IC50 (Acetylcholinesterase): 113 nM

SMILES: CC(C)OP(=O)(NCCC[Si-]123OCC[N+]1(CCO2)CCO3)OCCn1c(=O)c(F)cn(C2CCCO2)c1=O (stereo not drawn)
inhibition at 5 µg/mL (HCT-8): 29.3%
inhibition at 5 µg/mL (Bel-7402): 29.3%

SMILES: COc1ccc([Si](C)(C)[C@@H]2[C@@H](CCn3cc(CCO)nn3)O[C@]3(C(=O)N4c5c(ccc(OC)c53)C(C)=CC4(C)C)[C@H]2C)cc1
EC50 (HepG2): 32500 nM
EC50 (A549): 42800 nM

SMILES: O=C(NCCC[Si-]123OCC[N+]1(CCO2)CCO3)c1cc2c([nH]1)CCCC2 (stereo not drawn)
MIC (Escherichia coli [7]): 62.5 µg/mL (≈ 165 µM)

SMILES: CC1C[N+]23CC(C)O[Si-]2(CCC/N=C/c2cccc([N+](=O)[O-])c2)(O1)OC(C)C3 (stereo not drawn)
IC50 (HeLa [8]): 11.8 µg/mL (≈ 29 µM)
IC50 (MDA-MB-435 [9]): 12.5 µg/mL (≈ 30.7 µM)
IC50 (HT-29 [10]): 12.3 µg/mL (≈ 30.2 µM)

SMILES: CCCCCCCCCC[Si](C)(CCCCCCCCCC)OCC[N+](C)(C)C.[I-]
IC50 (HT-1080 [11]): 0.3 µg/mL
IC50 (MG-22A [12]): 1 µg/mL

SMILES: C[Si](O)(O[Si](C)(CCCn1cnc2c(N)ncnc21)c1ccccc1)c1ccccc1 (stereo not drawn)
IC50 [13]: 10000 nM
IC50 [14]: 6000 nM

SMILES: CCS(=O)(=O)c1cc([Si](C)(C)C)cnc1-c1nc2cc(S(=O)(=O)C(F)(F)F)ccc2o1
LC50 (Plutella xylostella): 0.3 µg/mL (≈ 0.609 µM)
LC50 (Mythimna separata): 4.8 µg/mL (≈ 9.74 µM)

SMILES: CCN(CC)CC.S=C(S)NCCC[Si-]123OCC[N+]1(CCO2)CCO3 (stereo not drawn)
MIC (Bacillus subtilis [15]): 0.8 µg/mL
MIC (Escherichia coli [16]): 0.765 µg/mL

SMILES: C[Si]1(Cl)C=C/C(=N\c2ccccc2)C1=P(c1ccccc1)(c1ccccc1)c1ccccc1 (stereo not drawn)
IC50 (Acetylcholinesterase): 113 nM

SMILES: Fc1ccc(/N=C/c2c(OCc3cn(CCC[Si-]456OCC[N+]4(CCO5)CCO6)nn3)ccc3ccccc23)cc1 (stereo not drawn)
MIC (Staphylococcus aureus): 3.25 µg/mL (≈ 5.79 µM)
MIC (Pseudomonas aeruginosa): 13.2 µg/mL (≈ 23.6 µM)
MIC [17]: 3.25 µg/mL (≈ 5.79 µM)

SMILES: Cc1cccc(C(O)c2c(C(C)C)c(=O)[nH]c(=O)n2COCc2ccccc2)c1 (stereo not drawn)
EC50 [20]: 200 nM

The next lines start with results.

IC50 (NCI-H460): 3600 nM
IC50 (Caco-2): 40100 nM
IC50 (MCF7): 3500 nM
IC50 (HT-29 [1]): 3600 nM
SMILES: CC(C)OC(=O)/C(=N/NC(=O)c1ccc(CO[Si](C)(C)C(C)(C)C)o1)c1ccccc1

IC50 (Histone deacetylase 2): 600 nM
IC50 (Histone deacetylase 4): 600 nM
IC50 (Histone deacetylase 5): 600 nM
IC50 [2]: 600 nM
IC50 (Histone deacetylase 1): 600 nM
SMILES: C[Si](O)(O)CCCCCCC(=O)Nc1ccccc1

IC50 (Interstitial collagenase): ~41 nM
SMILES: C[Si](C)(C)n1c(=S)c(=P(c2ccccc2)(c2ccccc2)c2ccccc2)/c1=N/c1ccccc1

MIC (Enterococcus durans [5]): 12.5 µg/mL (≈ 29.8 µM)
MIC (Bacillus subtilis [6]): 6.2 µg/mL (≈ 14.8 µM)
SMILES: COc1ccc(-c2cc(CNCCC[Si-]345OCC[N+]3(CCO4)CCO5)on2)cc1 (stereo not drawn)

MIC (Enterococcus durans [18]): 3.1 µg/mL (≈ 9.53 µM)
MIC (Bacillus subtilis [19]): 6.2 µg/mL (≈ 19.1 µM)
SMILES: O=C(NCCC[Si-]123OCC[N+]1(CCO2)CCO3)c1ccc[nH]1 (stereo not drawn)

GI50 (HeLa [21]): 24100 nM
GI50 (T47D): 26600 nM
SMILES: CC(C)(C)[Si](Oc1ccc2oc(=O)ccc2c1)(c1ccccc1)c1ccccc1
GI50 (WiDr): 32200 nM

GI50 (MDA-MB-435 [23]): 21 nM
SMILES: CC[C@@]1(O)C(=O)OCc2c1cc1n(c2=O)Cc2c-1nc1ccc(O)cc1c2[Si](C)(C)C(C)(C)C [AR-67]
IC50 (MDA-MB-435 [22]): 14 nM

IC50 (A2780): 1.8 nM
IC50 (COLO 320): 1.5 nM
IC50 (COLO 205): 1.5 nM
SMILES: CC[C@@]1(O)C(=O)OCc2c1cc1n(c2=O)Cc2c-1nc1ccccc1c2CC[Si](C)(C)C [COSITECAN]
